In ChEMBL document CHEMBL1681651, “A broad spectrum anticancer nucleoside with selective toxicity against human colon cells in vitro” (2011):

Columns and labels:
Assay type in all cases: functional
LOX IMVI = assay: Growth inhibition of human LOXIMVI cells assessed as cell growth at 10 uM after 48 hrs by SRB assay; settings: read-out: Activity
MOLT-4 = assay: Growth inhibition of human MOLT4 cells assessed as cell growth at 10 uM after 48 hrs by SRB assay; settings: MOLT-4, 48 h, read-out: Activity
KM12 = assay: Growth inhibition of human KM12 cells assessed as cell growth at 10 uM after 48 hrs by SRB assay; settings: KM12, 48 h, read-out: Activity
SN12C = assay: Growth inhibition of human SN12C cells assessed as cell growth at 10 uM after 48 hrs by SRB assay; settings: read-out: Activity
SK-MEL-5 [1] = assay: Growth inhibition of human SK-MEL-5 cells assessed as cell growth at 10 uM after 48 hrs by SRB assay; settings: SK-MEL-5, 48 h, read-out: Activity
RXF 393 [2] = assay: Growth inhibition of human RXF393 cells assessed as cell growth at 10 uM after 48 hrs by SRB assay; settings: RXF 393, 48 h, read-out: Activity
SK-MEL-2 [3] = assay: Growth inhibition of human SK-MEL-2 cells assessed as cell growth at 10 uM after 48 hrs by SRB assay; settings: SK-MEL-2, 48 h, read-out: Activity
Malme-3M = assay: Growth inhibition of human MALME-3M cells assessed as cell growth at 10 uM after 48 hrs by SRB assay; settings: read-out: Activity
NCI-H226 = assay: Growth inhibition of human NCI-H226 cells assessed as cell growth at 10 uM after 48 hrs by SRB assay; settings: NCI-H226, 48 h, read-out: Activity
HOP-92 = assay: Growth inhibition of human HOP92 cells assessed as cell growth at 1 uM after 48 hrs by SRB assay; settings: HOP-92, 48 h, read-out: Activity
SK-MEL-2 [4] = assay: Growth inhibition of human SK-MEL-2 cells assessed as cell growth at 1 uM after 48 hrs by SRB assay; settings: SK-MEL-2, 48 h, read-out: Activity
UACC-62 = assay: Growth inhibition of human UACC62 cells assessed as cell growth at 1 mM after 48 hrs by SRB assay; settings: UACC-62, 48 h, read-out: Activity
SK-MEL-2 [5] = assay: Growth inhibition of human SK-MEL-2 cells after 48 hrs by […] growth inhibition assay; settings: SK-MEL-2, 48 h
SK-MEL-5 [6] = assay: Growth inhibition of human SK-MEL-5 cells assessed as cell growth at 1 mM after 48 hrs by SRB assay; settings: SK-MEL-5, 48 h, read-out: Activity
SNB-75 [7] = assay: Growth inhibition of human SNB75 cells assessed as cell growth at 1 uM after 48 hrs by SRB assay; settings: SNB-75, 48 h, read-out: Activity
NCI-H23 [8] = assay: Growth inhibition of human NCI-H23 cells assessed as cell growth at 1 uM after 48 hrs by SRB assay; settings: NCI-H23, 48 h, read-out: Activity
[9] = Growth inhibition of human […] cells assessed as cell growth at 100 uM after 48 hrs by SRB assay; settings: read-out: Activity
HCT-15 = assay: Growth inhibition of human HCT15 cells assessed as cell growth at 0.1 uM after 48 hrs by SRB assay; settings: HCT-15, 48 h, read-out: Activity
UACC-257 = assay: Growth inhibition of human UACC257 cells assessed as cell growth at 0.1 uM after 48 hrs by SRB assay; settings: UACC-257, 48 h, read-out: Activity
OVCAR-5 = assay: Growth inhibition of human OVCAR5 cells assessed as cell growth at 0.1 uM after 48 hrs by SRB assay; settings: OVCAR-5, 48 h, read-out: Activity
NCI-H23 [10] = assay: Growth inhibition of human NCI-H23 cells after 48 hrs by […] growth inhibition assay; settings: NCI-H23, 48 h
SNB-75 [11] = assay: Growth inhibition of human SNB75 cells assessed as cell growth at 100 uM after 48 hrs by SRB assay; settings: SNB-75, 48 h, read-out: Activity
CAKI-1 = assay: Growth inhibition of human Caki1 cells assessed as cell growth at 0.1 uM after 48 hrs by SRB assay; settings: CAKI-1, 48 h, read-out: Activity
DU-145 = assay: Growth inhibition of human DU145 cells assessed as cell growth at 1 uM after 48 hrs by SRB assay; settings: DU-145, 48 h, read-out: Activity
BT-549 = assay: Growth inhibition of human BT549 cells assessed as cell growth at 1 mM after 48 hrs by SRB assay; settings: BT-549, 48 h, read-out: Activity
PC-3 = assay: Growth inhibition of human PC3 cells after 48 hrs by […] growth inhibition assay; settings: PC-3, 48 h
SF-539 = assay: Growth inhibition of human SF539 cells assessed as cell growth at 100 uM after 48 hrs by SRB assay; settings: SF-539, 48 h, read-out: Activity
M14 [12] = assay: Growth inhibition of human M14 cells assessed as cell growth at 0.1 uM after 48 hrs by SRB assay; settings: M14, 48 h, read-out: Activity
M14 [13] = assay: Growth inhibition of human M14 cells assessed as cell growth at 1 uM after 48 hrs by SRB assay; settings: M14, 48 h, read-out: Activity
RXF 393 [14] = assay: Growth inhibition of human RXF393 cells after 48 hrs by […] growth inhibition assay; settings: RXF 393, 48 h
CCRF-CEM = assay: Growth inhibition of human CCRF-CEM cells assessed as cell growth at 10 uM after 48 hrs by SRB assay; settings: read-out: Activity
MDA-MB-231 = assay: Growth inhibition of human MDA-MB-231 cells assessed as cell growth at 1 uM after 48 hrs by SRB assay; settings: MDA-MB-231, 48 h, read-out: Activity
A549 [15] = assay: Growth inhibition of human A549 cells assessed as cell growth at 100 uM after 48 hrs by SRB assay; settings: A549, 48 h, read-out: Activity
A549 [16] = assay: Growth inhibition of human A549 cells after 48 hrs by […] growth inhibition assay; settings: A549, 48 h
SK-MEL-2 [17] = assay: Growth inhibition of human SK-MEL-2 cells assessed as cell growth at 100 uM after 48 hrs by SRB assay; settings: SK-MEL-2, 48 h, read-out: Activity
[18] = read-out: LC50 (the source's name)
[19] = read-out: pLC50 (the source's name) (converted)

Question: Which results are given for `CNC(=O)OC[C@H]1O[C@@H](n2cnc3c(NC(=O)Nc4ccccc4)ncnc32)[C@H](O[Si](C)(C)C(C)(C)C)[C@@H]1O[Si](C)(C)C(C)(C)C`?
Answer: growth at 10 µM (LOX IMVI): 87.4%; growth at 10 µM (MOLT-4): 75.3%; growth at 10 µM (KM12): 110%; growth at 10 µM (SN12C): 101%; growth at 10 µM (SK-MEL-5 [1]): 101%; growth at 10 µM (RXF 393 [2]): 94.2%; growth at 10 µM (SK-MEL-2 [3]): 82.9%; growth at 10 µM (Malme-3M): 114%; growth at 10 µM (NCI-H226): 93.2%

Question: What does the source list for `CCOC(=O)C[C@H]1[C@@H](O[Si](C)(C)C(C)(C)C)[C@H](n2cnc3c(NC(=O)Nc4ccccc4)ncnc32)O[C@@H]1CNC(=O)NC`?
Answer: growth at 1 µM (HOP-92): -1%; growth at 1 µM (SK-MEL-2 [4]): 94%; growth at 1000 µM (UACC-62): 60%; GI50 (SK-MEL-2 [5]; read-out: GI50): 5.42 µM; CC50 (SK-MEL-2 [5]; [18]): > 100 µM; TGI (SK-MEL-2 [5]; read-out: TGI): 33.1 µM; GI50 (SK-MEL-2 [5]; read-out: pGI50 (converted)): 5.37 µM; CC50 (SK-MEL-2 [5]; [19]): > 100 µM; TGI (SK-MEL-2 [5]; read-out: pTGI (converted)): 33.1 µM; growth at 1000 µM (SK-MEL-5 [6]): 11%; growth at 1 µM (SNB-75 [7]): 90%; growth at 10 µM (LOX IMVI): 93%; growth at 1 µM (NCI-H23 [8]): 100%; growth at 100 µM [9]: -27%; growth at 10 µM (MOLT-4): 76%; growth at 0.1 µM (HCT-15): 99%; growth at 0.1 µM (UACC-257): 102%; growth at 0.1 µM (OVCAR-5): 104%; GI50 (NCI-H23 [10]; read-out: GI50): 33.3 µM; CC50 (NCI-H23 [10]; [18]): > 100 µM; TGI (NCI-H23 [10]; read-out: TGI): > 100 µM; GI50 (NCI-H23 [10]; read-out: pGI50 (converted)): 33.1 µM; CC50 (NCI-H23 [10]; [19]): > 100 µM; TGI (NCI-H23 [10]; read-out: pTGI (converted)): > 100 µM; growth at 100 µM (SNB-75 [11]): 32%; growth at 10 µM (KM12): 105%; growth at 0.1 µM (CAKI-1): 88%; growth at 1 µM (DU-145): 123%; growth at 10 µM (SN12C): 103%; growth at 10 µM (SK-MEL-5 [1]): 89%; growth at 1000 µM (BT-549): 51%; GI50 (PC-3; read-out: GI50): 2.25 µM; CC50 (PC-3; [18]): 78.4 µM; TGI (PC-3; read-out: TGI): 48.5 µM; GI50 (PC-3; read-out: pGI50 (converted)): 2.24 µM; CC50 (PC-3; [19]): 12.6 µM; TGI (PC-3; read-out: pTGI (converted)): 4.9 µM; growth at 100 µM (SF-539): 29%; growth at 0.1 µM (M14 [12]): 90%; growth at 1 µM (M14 [13]): 82%; GI50 (RXF 393 [14]; read-out: GI50): 2.01 µM; CC50 (RXF 393 [14]; [18]): 19.5 µM; TGI (RXF 393 [14]; read-out: TGI): 4.63 µM; GI50 (RXF 393 [14]; read-out: pGI50 (converted)): 2 µM; CC50 (RXF 393 [14]; [19]): 19.5 µM; TGI (RXF 393 [14]; read-out: pTGI (converted)): 4.68 µM; growth at 10 µM (CCRF-CEM): 92%; growth at 1 µM (MDA-MB-231): 103%; growth at 10 µM (RXF 393 [2]): 92%; growth at 10 µM (SK-MEL-2 [3]): 99%; growth at 100 µM (A549 [15]): 23%; growth at 10 µM (Malme-3M): 92%; GI50 (A549 [16]; read-out: GI50): 4.18 µM; CC50 (A549 [16]; [18]): 79.1 µM; TGI (A549 [16]; read-out: TGI): 19.2 µM; GI50 (A549 [16]; read-out: pGI50 (converted)): 4.17 µM; CC50 (A549 [16]; [19]): 79.4 µM; TGI (A549 [16]; read-out: pTGI (converted)): 19.1 µM; growth at 100 µM (SK-MEL-2 [17]): 32%; growth at 10 µM (NCI-H226): 102%
